Experimental findings from US12662491B2 (Redona Therapeutics, Inc., priority 2020, dated 2026) are described below.

What is called IC50 is the point on the concentration scale where inhibition reaches its midpoint.

One test addresses T1, Zcchc11 enzyme (Homo sapiens, UniProt Q5TAX3).
T1 construct: made in house; host or cells: HEK293 cells (Zcchc11); E. coli Rosetta II (LIN28A)
T1 sequence (Q5TAX3 212-1420): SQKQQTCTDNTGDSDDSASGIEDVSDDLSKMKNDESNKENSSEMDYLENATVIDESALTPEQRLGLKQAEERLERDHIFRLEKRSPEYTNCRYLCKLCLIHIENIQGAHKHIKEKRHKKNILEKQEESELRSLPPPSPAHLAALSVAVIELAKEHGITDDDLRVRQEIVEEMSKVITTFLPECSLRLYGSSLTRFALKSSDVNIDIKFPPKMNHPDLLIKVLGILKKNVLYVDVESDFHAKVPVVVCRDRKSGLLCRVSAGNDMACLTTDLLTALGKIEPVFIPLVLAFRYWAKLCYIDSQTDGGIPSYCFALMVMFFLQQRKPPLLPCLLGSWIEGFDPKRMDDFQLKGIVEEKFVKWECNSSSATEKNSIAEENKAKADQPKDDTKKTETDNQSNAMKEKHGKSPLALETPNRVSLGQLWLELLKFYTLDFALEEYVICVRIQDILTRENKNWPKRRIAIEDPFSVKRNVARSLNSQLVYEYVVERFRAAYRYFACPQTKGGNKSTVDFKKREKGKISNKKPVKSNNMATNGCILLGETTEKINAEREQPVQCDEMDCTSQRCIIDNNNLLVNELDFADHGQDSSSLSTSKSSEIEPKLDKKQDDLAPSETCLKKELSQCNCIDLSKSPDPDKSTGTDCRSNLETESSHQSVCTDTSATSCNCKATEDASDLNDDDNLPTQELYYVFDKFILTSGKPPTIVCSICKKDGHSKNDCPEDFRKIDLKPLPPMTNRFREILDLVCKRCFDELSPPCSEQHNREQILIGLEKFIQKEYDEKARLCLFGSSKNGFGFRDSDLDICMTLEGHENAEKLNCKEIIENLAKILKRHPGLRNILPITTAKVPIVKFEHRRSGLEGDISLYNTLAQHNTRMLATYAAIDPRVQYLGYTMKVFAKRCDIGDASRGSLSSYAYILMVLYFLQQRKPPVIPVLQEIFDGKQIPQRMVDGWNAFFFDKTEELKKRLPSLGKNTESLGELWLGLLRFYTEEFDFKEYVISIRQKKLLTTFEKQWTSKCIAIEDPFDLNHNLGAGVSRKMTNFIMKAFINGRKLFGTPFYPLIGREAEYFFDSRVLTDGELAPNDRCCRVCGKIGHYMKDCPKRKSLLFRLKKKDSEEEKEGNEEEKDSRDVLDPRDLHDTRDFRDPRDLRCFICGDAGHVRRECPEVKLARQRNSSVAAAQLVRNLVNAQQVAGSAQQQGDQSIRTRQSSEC
Nature of the test: TUTase assay (Zcchc11 assay, Lin28a-dependent polyuridylation of pre-let-7). The class given is biochemical. Conditions: Lin28a-dependent Zcchc11 (Z11) TUTase activity; read-out: Potency Lin28a-dep Z11 IC50. In a few lines:
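Readout: time-dependent quench of 5′-fluorescein pre-let-7 (2 nM) as 3′-rhodamine A20 probe anneals to poly(U) tails. Enzyme 0.2 nM Zcchc11 (res. 212-1420), LIN28A 10 nM, UTP 5 uM; pH 7.3 HEPES, 150 mM KCl, 5 mM MgCl2, RT. 4-parameter IC50; 100% = DMSO, 0% = no UTP.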
On to `COc1ccc(Cl)c(OCC2C3CC(C3)N2c2cc3c(cc2Cl)c(=O)c(C(=O)O)cn3-c2ccc(N3CC(N(C)C)C3)nc2)n1` (stereo not shown) [Compound 202, 6-chloro-7-(3-(((3-chloro-6-methoxy-pyridin-2-yl)oxy)methyl)-2-azabicyclo [2.1.1]hexan-2-yl)-1-(6-(3-(dimethyl-amino)azetidin-1-yl)pyridin-3-yl)-4-oxo-1,4-dihydro-quinoline-3-carboxylic acid], for which the IC50 is at most 1000 nM.

In the case of `CCN1CC(n2cc(-n3cc(C(=O)O)c(=O)c4cc(Cl)c(N5CCC[C@@H]5COc5ncccc5Cl)cc43)cn2)C1` [Compound 241], the 50% inhibitory concentration (IC50) is at most 1000 nM.

On to `COc1ccc(Cl)c(OCC23CC(CN2c2cc4c(cc2Cl)c(=O)c(C(=O)O)cn4-c2ccc(N4CC(N(C)C)C4)nc2)C3)n1` [Compound 258, 6-chloro-7-(1-(((3-chloro-6-methoxy-pyridin-2-yl)oxy)methyl)-2-azabicyclo [2.1.1]hexan-2-yl)-1-(6-(3-(dimethyl-amino)azetidin-1-yl)pyridin-3-yl)-4-oxo-1,4-dihydro-quinoline-3-carboxylic acid], for which the IC50 was 1000 to 10000 nM.

Staying with this test, now noted: Lin28a-dependent Zcchc11 (Z11) TUTase assay; read-out: Potency Lin28a-dep Z11 IC50.
As for `COCCN(C)C1CN(c2ccc(-n3cc(C(=O)O)c(=O)c4cc(Cl)c(N5CCC[C@@H]5COc5nc(N(C)C)ccc5Cl)cc43)cn2)C1` [Example 657, (R)-6-chloro-7-(2-(((3-chloro-6-(dimethylamino)pyridin-2-yl)oxy)methyl)pyrrolidin-1-yl)-1-(6-(3-((2-methoxyethyl) (methyl)amino)azetidin-1-yl)pyridin-3-yl)-4-oxo-1,4-dihydroquinoline-3-carboxylic acid], the IC50 was at most 1000 nM.

In the case of `O=C(O)c1cn(-c2cccc(F)c2)c2cc(N3CCC[C@@H]3COc3ccccn3)c(F)cc2c1=O` [Example 375, (R)-6-fluoro-1-(3-fluorophenyl)-4-oxo-7-(2-((pyridin-2-yloxy)methyl)pyrrolidin-1-yl)-1,4-dihydroquinoline-3-carboxylic acid], the concentration for half-maximal inhibition (IC50) fell in the range of 1000 to 10000 nM.

As for `O=C(O)c1cn(-c2cnccn2)c2cc(N3CCC[C@@H]3COc3ncccc3Cl)c(Cl)cc2c1=O` [Example 425, (R)-6-chloro-7-(2-(((3-chloropyridin-2-yl)oxy)methyl)pyrrolidin-1-yl)-4-oxo-1-(pyrazin-2-yl)-1,4-dihydroquinoline-3-carboxylic acid], the IC50 is at most 1000 nM.

In the case of `COCCNc1ccc(-n2cc(C(=O)O)c(=O)c3cc(I)c(N4CCC[C@@H]4COc4ncccc4Cl)cc32)cn1` [Example 558, (R)-7-(2-(((3-chloropyridin-2-yl)oxy)methyl)pyrrolidin-1-yl)-6-iodo-1-(6-((2-methoxyethyl)amino)pyridin-3-yl)-4-oxo-1,4-dihydroquinoline-3-carboxylic acid], the half-inhibitory concentration (IC50) is at most 1000 nM.

Consider `O=C(O)c1cn(-c2ccc(F)cc2)c2cc(N3CCC[C@@H]3COc3ccccn3)c(F)cc2c1=O` [Example 378, (R)-6-fluoro-1-(4-fluorophenyl)-4-oxo-7-(2-((pyridin-2-yloxy)methyl)pyrrolidin-1-yl)-1,4-dihydroquinoline-3-carboxylic acid], for which the IC50 is at most 1000 nM.

In the case of `O=C(O)c1cn(-c2cn[nH]c2)c2cc(N3CCC[C@@H]3COc3ncccc3Cl)c(Cl)cc2c1=O` [Example 434, (R)-6-chloro-7-(2-(((3-chloropyridin-2-yl)oxy)methyl)pyrrolidin-1-yl)-4-oxo-1-(1H-pyrazol-4-yl)-1,4-dihydroquinoline-3-carboxylic acid], the IC50 lay within 1000 to 10000 nM.

Regarding `CN(C)C1CN(c2ccc(-n3cc(C(=O)O)c(=O)c4cc(Cl)c(N5CCC[C@@H]5COc5ncccc5Cl)nc43)cn2)C1` [Example 532, (R)-6-chloro-7-(2-(((3-chloropyridin-2-yl)oxy)methyl)pyrrolidin-1-yl)-1-(6-(3-(dimethylamino)azetidin-1-yl)pyridin-3-yl)-4-oxo-1,4-dihydro-1,8-naphthyridine-3-carboxylic acid], the IC50 was at most 1000 nM.
